Results as given in PMC9028889 (Pharmaceuticals, 2022).

Legend:
[1] = system: MB231 cells; assay: clonogenic survival / colony formation assay, MB231; assay type: cell-based, human; conditions: for EC50: Homo sapiens, clonogenic survival assay, TNBC cell line; for colony formation: MB231, 0, 1, 5, and 10 μM, 2 weeks
Method: (§1) MCF10A, T47D, and MB231 cells (5 × 10^3) were seeded in 24-well plates, and cells were exposed to different CMC conjugates at different concentrations (0, 1, 5, and 10 μM) for 2 weeks, changing the medium for every 3 days with respective CMC conjugates at the indicated concentrations. After 2 weeks, cells were washed with PBS and fixed in 100% methanol for 30 min followed by staining with KaryoMax Giemsa stain for 1 h. The unfound dyes were removed by washing the wells with water and dried overnight at room temperature. Finally, cells were lysed with lysis buffer (1% SDS in 0.2 N NaOH) for 5 min, and the absorbance of the released dye was measured at 630 nm, as described before. Values are shown as mean ± SD of three experiments with 3 wells in each, for a total of 9 repeats.

[2] = system: normal C57BL/6 mice; assay: toxicity study in normal C57BL/6 mice; assay type: in vivo; conditions: 50 and 100 mg/kg body, oral gavage daily for 7 days; for morphology (kidney, liver, lung): H&E
Method: We tested whether the synthesized conjugates are free of toxicity and safer to use in human normal cells and animal models. We treated human normal immortalized cell line (MCF10A) and normal C57BL/6 mice at different concentrations and time points.
Administration of CMC compounds to the mice: For toxicity studies, CMC1 and CMC2 conjugates at two different concentrations (50 and 100 mg/kg body) were given oral gavage daily for 7 days. At the end of the experiment, animals were euthanized, kidneys, liver, and lungs were analyzed for morphological changes. We also collected blood samples to measure Creatinine using a Creatinine assay kit (obtained from Millipore Sigma, Burlington, MA, USA, Catalog # MAK080), Alanine aminotransferase (ALT), using an ALT assay kit (obtained from the Millipore Sigma, Catalog #MAK053), Aspartate aminotransferase (AST), using an AST assay kit obtained from Millipore Sigma, Catalog #MAK055), and blood urea and nitrogen (BUN), using a urea nitrogen assay kit (obtained from ThermoFisher Scientific, Waltham, MA, USA, Catalog #EIABUN) as per the manufacturer’s instruction.

[3] = system: MCF10A cells; assay: clonogenic survival / colony formation assay, MCF10A; assay type: cell-based, human; conditions: for EC50: MCF-10A, clonogenic survival assay, human normal immortalized mammary epithelial cell line; for colony formation: MCF10A, 0, 1, 5, and 10 μM, 2 weeks
Method: as §1

[4] = system: MMTV–PyMT–Tg mice; assay: spontaneous mouse mammary tumor model; assay type: in vivo; conditions: 10 mg/kg body, three times a week by oral gavage for 7 weeks
Method: We chose MMTV–PyMT–Tg mouse mainly because the tumor formation and progression in this mouse is characterized by four different stages (hyperplasia, adenoma/mammary intra-epithelial neoplasia, early and late carcinoma) and also mimics human BC; the tumor develops first as ER-positive (ER^+) but ultimately becomes ER-negative BC (ER^− BC). We randomly assigned 6-week-old MMTV–PyMT–Tg mice into two groups (6 mice in each); one control and one CMC2 treated (10 mg/kg body, three times a week by oral gavage for 7 weeks). We measured the tumor volume twice a week. Tumor volume was calculated using the formula V = L × W^2/2, where L represents the largest tumor diameter, and W represents the smallest tumor diameter. Mice were euthanized after seven weeks of treatment, and tumor tissues were collected. The total tumor weight was measured. Tumor tissue sections were prepared and stained with Hematoxylin and Eosin (H&E) for morphometric analysis and Ki67 for cell proliferation analysis.
Similarly, six-week-old MMTV–PyMT–Tg mice were grouped into two groups—one control and one CMC2 treatment. The control mice received PBS, and the CMC2-treated group received CMC2 conjugate (10 mg/kg body by oral gavage, three times a week) for 7 weeks. We monitored animal weight and measured the tumor volume twice a week. At the end of the experimental period, mice were euthanized, and tumor tissues were harvested and measured for tumor weight. Tumor tissues were processed to extract RNA and protein and fixed in 10% buffered formalin phosphate solution (obtained from Fisher Scientific, Catalog #SF100-4) for morphological analysis.

[5] = system: T47D cells; assay: clonogenic survival / colony formation assay, T47D; assay type: cell-based, human; conditions: for EC50: Homo sapiens, T47D, clonogenic survival assay, ER+ BC cell line; for colony formation: T47D, 0, 1, 5, and 10 μM, 2 weeks
Method: as §1

[6] = system: T47D cells; assay: MTT cell proliferation assay, T47D; assay type: cell-based, human; conditions: T47D, 0, 1, 5, and 10 μM, 72 h
Method: (§2) MCF10A, T47D, and MB231 cells (5 × 10^3) were seeded in 96-well plates and incubator at 37 °C with 5% CO2 in MEGM, DMEM, and RPMI medium (100 μL), respectively. After 24 h, the medium was replaced with the CMC conjugates at different concentrations (0, 1, 5, and 10 μM) for 72 h. After 72 h, 10 μL MTT reagent was added to each well and incubated for 2 h for the formation of purple formazan and then added 100 μL detergent to dissociate the formazan precipitate and measured at 570 nm. Values are shown as mean ± SD of three experiments with 3 wells in each, a total of 9 repeats.

[7] = system: MB231 cells; assay: MTT cell proliferation assay, MB231; assay type: cell-based, human; conditions: MB231, 0, 1, 5, and 10 μM, 72 h
Method: as §2

[8] = system: MCF10A cells; assay: MTT cell proliferation assay, MCF10A; assay type: cell-based, human; conditions: MCF10A, 0, 1, 5, and 10 μM, 72 h
Method: as §2

Question: Which results are given for `COc1cc(/C=C/C(=O)/C=C(O)/C=C/c2ccc(OC(=O)CNC(=O)C(Cl)Cl)c(OC)c2)ccc1OC(=O)CNC(=O)C(Cl)Cl` [CMC2, ((1E,3Z,6E)-3-Hydroxy-5-oxohepta-1,3,6-triene-1,7-diyl)bis(2-methoxy-4,1-phenylene) bis(2-(2,2-dichloroacetamido)acetate)]?
Answer: EC50 [1]: 778 nM; body weight [2]: no changes; kidney functions (serum creatinine and blood urea and nitrogen) [2]: no changes; liver functions (ALT and AST) [2]: no changes; morphology (kidney, liver, lung) [2]: no changes; EC50 [3]: 9680 nM; lung nodules [4]: reducing; normal body weight and organ histology [4]: without affecting; overall survival rate [4]: increased; tumor cell proliferation (Ki67) in mammary and lung tumor tissue [4]: inhibiting; tumor growth [4]: significantly reduced; EC50 [5]: 1420 nM

Question: For `COc1cc(/C=C/C(=O)/C=C(O)/C=C/c2ccc(OC(=O)[C@H](Cc3ccccc3)NC(=O)C(Cl)Cl)c(OC)c2)ccc1OC(=O)[C@H](Cc1ccccc1)NC(=O)C(Cl)Cl` [CMC5, ((1E,3Z,6E)-3-Hydroxy-5-oxohepta-1,3,6-triene-1,7-diyl)bis(2-methoxy-4,1-phenylene) (2S,2’S)-bis(2-(2,2-dichloroacetamido)-3-phenylpropanoate)], which EC50 [1] is on record?
Answer: Its EC50 is 838 nM.

Question: And the EC50 [3]?
Answer: The EC50 was 9600 nM.

Question: What about the EC50 [5] of the same molecule?
Answer: The EC50 was 1240 nM.

Question: What does the source list for `COc1cc(/C=C/C(=O)/C=C(O)/C=C/c2ccc(OC(=O)C(Cl)Cl)c(OC)c2)ccc1OC(=O)C(Cl)Cl` [CMC1, ((1E,3Z,6E)-3-Hydroxy-5-oxohepta-1,3,6-triene-1,7-diyl)bis(2-methoxy-4,1-phenylene) bis(2,2-dichloroacetate)]?
Answer: EC50 [1]: 424 nM; body weight [2]: no changes; kidney functions (serum creatinine and blood urea and nitrogen) [2]: no changes; liver functions (ALT and AST) [2]: no changes; morphology (kidney, liver, lung) [2]: no changes; EC50 [3]: 8980 nM; EC50 [5]: 1650 nM

Question: With `COc1cc(/C=C/C(=O)/C=C(O)/C=C/c2ccc(OC(=O)[C@H](C)NC(=O)C(Cl)Cl)c(OC)c2)ccc1OC(=O)[C@H](C)NC(=O)C(Cl)Cl` [CMC3, ((1E,3Z,6E)-3-Hydroxy-5-oxohepta-1,3,6-triene-1,7-diyl)bis(2-methoxy-4,1-phenylene) (2S,2’S)-bis(2-(2,2-dichloroacetamido)propanoate)] as the molecule, how does the EC50 [1] read?
Answer: Its EC50 is 518 nM.

Question: And the EC50 [3]?
Answer: The EC50 was 9710 nM.

Question: What about the EC50 [5] of the same molecule?
Answer: Its EC50 is 1600 nM.

Question: Which results are given for `O=C(O)C(Cl)Cl` [DCA, Dichloroacetate, reference compound]?
Answer: cell viability / proliferation (MTT) [6]: inhibited; colony formation [1]: inhibited; colony formation [3]: not; cell viability / proliferation (MTT) [7]: inhibited; cell viability / proliferation (MTT) [8]: not; colony formation [5]: inhibited

Question: For `COc1cc(/C=C/C(=O)/C=C(O)/C=C/c2ccc(OC(=O)CCNC(=O)C(Cl)Cl)c(OC)c2)ccc1OC(=O)CCNC(=O)C(Cl)Cl` [CMC4, ((1E,3Z,6E)-3-Hydroxy-5-oxohepta-1,3,6-triene-1,7-diyl)bis(2-methoxy-4,1-phenylene) bis(3-(2,2-dichloroacetamido)propanoate)], which EC50 [1] is on record?
Answer: Its EC50 is 1130 nM.

Question: What about the EC50 [3] of the same molecule?
Answer: The EC50 was 8860 nM.

Question: What about the melting point of the same molecule?
Answer: Its melting point is 140 to 142 °C.

Question: What about the EC50 [5] of the same molecule?
Answer: Its EC50 is 1260 nM.

Question: Which “cell viability / proliferation (MTT)” value [6] does the source give for `COc1cc(/C=C/C(=O)CC(=O)/C=C/c2ccc(O)c(OC)c2)ccc1O` [CUR, Curcumin, reference compound] here?
Answer: The value was “inhibited”.

Question: And the colony formation [1]?
Answer: The colony formation was “inhibited”.

Question: What about the colony formation [3] of the same molecule?
Answer: The colony formation was “not”.

Question: And the “cell viability / proliferation (MTT)” value [7]?
Answer: Its value is “inhibited”.

Question: What about the “cell viability / proliferation (MTT)” value [8] of the same molecule?
Answer: The value was “not”.

Question: What about the colony formation [5] of the same molecule?
Answer: Its colony formation is “inhibited”.

Question: For `COc1cc(/C=C/C(=O)/C=C(O)/C=C/c2ccc(OC(=O)CCCNC(=O)C(Cl)Cl)c(OC)c2)ccc1OC(=O)CCCNC(=O)C(Cl)Cl` [CMC6, ((1E,3Z,6E)-3-Hydroxy-5-oxohepta-1,3,6-triene-1,7-diyl)bis(2-methoxy-4,1-phenylene) bis(4-(2,2-dichloroacetamido)butanoate)], which EC50 [1] is on record?
Answer: Its EC50 is 942 nM.

Question: What about the EC50 [3] of the same molecule?
Answer: The EC50 was 9470 nM.

Question: And the melting point?
Answer: The melting point was 130 to 132 °C.

Question: What about the EC50 [5] of the same molecule?
Answer: Its EC50 is 1370 nM.
